Columns and labels:
[1] = Plasma concentration in healthy human subjects (6 subjects) at 600 mg, po administered as single enteric-coated compound dose measured after 2 hrs by GLC method; format: ADME, organism-based
[2] = Plasma concentration in healthy human subjects (6 subjects) at 600 mg, po administered as single enteric-coated compound dose measured after 3 hrs by GLC method; format: ADME, organism-based
[3] = Plasma concentration in healthy human subjects (6 subjects) at 600 mg, po administered as single enteric-coated compound dose measured after 4 hrs by GLC method; format: ADME, organism-based
[4] = Plasma concentration in healthy human subjects (6 subjects) at 600 mg, po administered as single enteric-coated compound dose measured after 6 hrs by GLC method; format: ADME, organism-based
[5] = Plasma concentration in healthy human subjects (6 subjects) at 600 mg, po administered as single enteric-coated compound dose measured after 10 hrs by GLC method; format: ADME, organism-based
[6] = Plasma concentration in healthy human subjects (6 subjects) at 600 mg, po administered as single enteric-coated compound dose measured after 24 hrs by GLC method; format: ADME, organism-based
[7] = Plasma concentration in healthy human subjects (6 subjects) at 600 mg, po administered as single enteric-coated compound dose measured after 30 hrs by GLC method; format: ADME, organism-based
[8] = Plasma concentration in healthy human subjects (6 subjects) at 600 mg, po administered as single enteric-coated compound dose measured after 48 hrs by GLC method; format: ADME, organism-based
[9] = Plasma concentration in healthy human subjects (6 subjects) at 600 mg, po administered as single enteric-coated compound dose measured after 72 hrs by GLC method; format: ADME, organism-based
Homo sapiens [10] = test: Drug lag time in healthy human subjects (6 subjects) at 600 mg, po administered as single enteric-coated compound dose measured by GLC method; format: ADME, organism-based; conditions: in vivo
[11] = Tmax in healthy human subjects (6 subjects) at 600 mg, po administered as single enteric-coated compound dose measured by GLC method; format: ADME, organism-based; conditions: in vivo
[12] = Elimination rate constant during beta-phase in healthy human subjects (6 subjects) at 600 mg, po administered as single enteric-coated compound dose measured by GLC method; format: ADME, organism-based; conditions: in vivo
[13] = Terminal half life in healthy human subjects (6 subjects) at 600 mg, po administered as single enteric-coated compound dose measured by GLC method; format: ADME, organism-based; conditions: in vivo, read-out: beta t1/2 (converted)
[14] = AUC in healthy human subjects (6 subjects) at 600 mg, po administered as single enteric-coated compound dose measured by GLC method; format: ADME, organism-based; conditions: in vivo
Homo sapiens [15] = test: Apparent volume of distribution in healthy human subjects (6 subjects) at 600 mg, po administered as single enteric-coated compound dose measured by GLC method; format: ADME, organism-based; conditions: in vivo
[16] = Total plasma clearance in healthy human subjects (6 subjects) at 600 mg, po administered as single enteric-coated compound dose measured by GLC method; format: ADME, organism-based
Homo sapiens [17] = test: Mean steady state plasma concentration in healthy human subjects (6 subjects) at 1200 mg, po for 12 days administered as enteric-coated compound dose by GLC method; format: ADME, organism-based; conditions: in vivo, 288 h
[18] = Steady state plasma concentration before morning dose in healthy human subjects (6 subjects) at 1200 mg, po for 12 days administered as enteric-coated compound dose by GLC method; format: ADME, organism-based; conditions: read-out: Cpss
[19] = Half life at steady state in healthy human subjects (6 subjects) at 1200 mg, po for 12 days administered as enteric-coated compound dose by GLC method; format: ADME, organism-based; conditions: in vivo, read-out: t1/2ss (converted)
[20] = Plasma protein binding in healthy human subjects (6 subjects) measured under steady state conditions by equilibrium dialysis method; format: ADME, cell-free; conditions: read-out: PPB (converted)
[21] = Plasma protein binding in healthy human subjects (6 subjects) assessed as unbound fraction level measured under steady state conditions by equilibrium dialysis method; format: ADME, cell-free
[22] = Drug concentration in saliva of healthy human subjects (6 subjects) at 600 mg, po administered as single enteric-coated compound; format: ADME, organism-based; conditions: in vivo
[23] = Drug concentration in saliva of healthy human subjects (6 subjects) at 1200 mg, po for 12 days administered as enteric-coated compound dose measured under steady state conditions by GLC method relative to plasma drug level; format: ADME, organism-based; conditions: in vivo, 288 h
[24] = Ratio of urinary excretion of valproic acid to urinary excretion of VPA-conjugates in healthy human subjects (6 subjects) at 600 mg, po administered as single enteric-coated compound; format: ADME, organism-based, Urine; conditions: in vivo
[25] = Ratio of urinary excretion of valproic acid to urinary excretion of VPA-conjugates in healthy human subjects (6 subjects) at 1200 mg, po for 12 days administered as enteric-coated compound dose measured during 24 hrs relative to total drug excretion; format: ADME, organism-based, Urine; conditions: in vivo
[26] = Half life in human measured over 24 hrs; format: ADME, organism-based; conditions: in vivo

CCCC(CCC)C(=O)[O-].[Na+] [VALPROATE SODIUM]
concentration at 2 h [1]: 10300 ng/mL | concentration at 3 h [2]: 42800 ng/mL | concentration at 4 h [3]: 58100 ng/mL | concentration at 6 h [4]: 53200 ng/mL | concentration at 10 h [5]: 38400 ng/mL | concentration at 24 h [6]: 17600 ng/mL | concentration at 30 h [7]: 14000 ng/mL | concentration at 48 h [8]: 6500 ng/mL | concentration at 72 h [9]: 2500 ng/mL | Tlag (Homo sapiens [10]): 1.3 h | Tmax [11]: 3.7 h | k el [12]: 1.25e-05 s⁻¹ | half-life [13]: 15.9 h | AUC [14]: 1210 µg·h/mL | Vbeta (Homo sapiens [15]): 0.15 L/kg | CL/F [16]: 0.107 mL/min/kg | Cpss (Homo sapiens [17]): 81.3 µg/mL | concentration at 288 h [18]: 75300 ng/mL | half-life [19]: 17.3 h | fraction unbound [20]: 0.067 | fraction unbound [21]: 0.067 | Drug uptake [22]: < 0.5 µg/mL | Drug uptake [23]: 1.3% | Ratio [24]: 0.158 | Ratio [25]: 1.127 | half-life [26]: 8 h

— ChEMBL document CHEMBL3785076, “Disposition of valproic acid in man” (Eur J Clin Pharmacol, 1977)
